According to PMC12563520, “Asiatic Acid from Centella asiatica as a Potent EGFR Tyrosine Kinase Inhibitor with Anticancer Activity in NSCLC Cells Harboring Wild-Type and T790M-Mutated EGFR” (Biomolecules, 2025):
Read-outs that look alike come from different tables or passages of the source.

Legend:
wild-type EGFR = molecular target: T1, wild-type EGFR (Homo sapiens, UniProt P00533); assay: ADP-Glo kinase assay, wild-type EGFR; assay type: biochemical; settings: mean ± SEM (n = 3), read-out: IC50 kinase inhibition, Wild-Type EGFR
T1 construct: purchased Sigma-Aldrich SRP0239

L858R/T790M EGFR = molecular target: T2, L858R/T790M EGFR (Homo sapiens, UniProt P00533, L858R/T790M); assay: ADP-Glo kinase assay, double-mutant EGFR; assay type: biochemical; settings: mean ± SEM (n = 3), read-out: IC50 kinase inhibition, L858R/T790M EGFR
T2 construct: purchased Sigma-Aldrich SRP0242
Method: The EGFR inhibitory activity of the tested compound was measured using the ADP-Glo^TM assay (Promega, WI, USA) according to a previous study [28]. […] For the positive control, 2 μL of DMSO was added in place of the tested compound. For the negative control, the EGFR enzyme was omitted and replaced with 5 μL of 1X kinase buffer. The plate was protected from light and incubated at room temperature for 1 h, followed by the addition of 5 μL ADP-Glo^TM reagent and a further 40-min incubation. To convert ADP to ATP, 10 μL of kinase detection reagent was added, followed by a 30-min incubation under the same conditions. ATP levels were then measured using a Varioskan LUX multimode microplate reader (Thermo Fisher Scientific, Waltham, MA, USA), and percent inhibition was calculated using Equation (1).(1) Inhibition activity %=positive − negative−sample −negative/positive−negative ×100
The IC50 of each compound was calculated using GraphPad Prism software (version 8.0.2, GraphPad Software, Inc., Boston, MA, USA).

[1] = molecular target: fibroblast growth factor receptor (FGFR); assay: FGFR kinase inhibition (selectivity); assay type: biochemical
A549 cells [2] = assay: MTT cell viability assay, A549; assay type: cell-based; settings: Homo sapiens, 72 h, mean ± SEM (n = 3)
Method: (§1) Cells were seeded in a 96-well plate at 1,500 cells/well and incubated at 37 °C for 24 h. After incubation, the culture medium was replaced with fresh medium containing various concentrations of asiatic acid. Cells treated with 0.8% (v/v) DMSO served as the vehicle control. After 72 h, cells were incubated with 100 μL of MTT solution (0.5 mg/mL in PBS) for 4 h at 37 °C. The solution was then removed, 100 μL of DMSO was added, and the plate was protected from light with gentle agitation for 15 min. Absorbance was recorded at 540 nm using a Sunrise microplate reader (Tecan Group Ltd., Männedorf, Switzerland).

H1975 cells [3] = assay: MTT cell viability assay, H1975; assay type: cell-based; settings: Homo sapiens, NCI-H1975
Method: as §1

[4] = test system: BEAS-2B normal lung epithelial cells; assay: MTT cell viability assay, BEAS-2B; assay type: cell-based, human
Method: as §1

A549 cells [5] = assay: Annexin V/PI apoptosis assay by flow cytometry, A549; assay type: cell-based, human; settings: 24 h
Method: Cells were plated in a 6-well plate at a density of 200,000 cells/well and allowed to adhere overnight at 37 °C. The following day, cells were treated with increasing concentrations of asiatic acid for 24 h. […] After treatment, cells were harvested by trypsinization and centrifugation. The cell pellets were stained with FITC-conjugated Annexin V (640945; BioLegend, San Diego, CA, USA) and incubated for 30 min at room temperature in the dark. Propidium iodide (PI; P3566; Invitrogen^TM, Waltham, MA, USA) was then added, and apoptotic populations were analyzed using a BD FACSCalibur flow cytometer (BD Biosciences, Heidelberg, Germany).

H1975 cells [6] = assay: Annexin V/PI apoptosis assay by flow cytometry, H1975; assay type: cell-based, human; settings: 24 h
Method: Cells were plated in a 6-well plate at a density of 200,000 cells/well and allowed to adhere overnight at 37 °C. The following day, cells were treated with increasing concentrations of asiatic acid for 24 h. […] After treatment, cells were harvested by trypsinization and centrifugation. […] Propidium iodide (PI; P3566; Invitrogen^TM, Waltham, MA, USA) was then added, and apoptotic populations were analyzed using a BD FACSCalibur flow cytometer (BD Biosciences, Heidelberg, Germany).

[7] = test system: cleaved PARP (Asp214) in A549 cells; assay: Western blot of cleaved PARP, A549; assay type: cell-based, human; settings: for cleaved PARP expression (fold), Mean: 24 h, vs 0 μM
Method: (§2) Cells were plated at 200,000 cells/well in a 6-well plate and allowed to adhere for 24 h. They were then treated with the tested compound at varying concentrations for 24 h. For A549 cells, treatment was performed in serum-free medium for 24 h, followed by stimulation with 100 ng/mL human EGF for 10 min prior to harvesting. Cells were harvested by trypsinization, lysed in RIPA buffer [50 mM Tris-HCl (pH 7.4), 150 mM NaCl, 1% NP-40, 1% Na-deoxycholate, and 0.1% SDS] with protease and phosphatase inhibitors, and incubated on ice for 30 min. Lysates were centrifuged, and protein concentration was determined using the Bradford assay. Equal amounts (30 μg) were separated by 10% SDS-PAGE and transferred to a […] membrane (Immobilon®-P, Merck Millipore, Burlington, MA, USA). The membrane was blocked with 5% skim milk in 1X TBST and incubated overnight at 4 °C with primary antibodies (Table S2) diluted 1:1000 in 1% skim milk-TBST or 1% BSA-TBST. After washing, membranes were incubated at room temperature for 1 h with secondary antibodies—goat anti-Rabbit IgG or goat anti-Mouse IgG (Invitrogen, Waltham, MA, USA)—diluted 1:2000. Protein signals were detected using Luminata^TM Crescendo Western HRP Substrate (Merck Millipore) and imaged with an ImageQuant 800 system (GE Healthcare Bio-Sciences, Uppsala, Sweden). The auto exposure mode was selected to automatically adjust the exposure time to prevent image saturation. The detected signal was quantified using Image Studio Lite (version 5.2, LICORbio^TM, Lincoln, NE, USA).

[8] = test system: cleaved PARP (Asp214) in H1975 cells; assay: Western blot of cleaved PARP, H1975; assay type: cell-based, human; settings: for cleaved PARP expression (fold), Mean: 24 h, vs 0 μM
Method: as §2

[9] = test system: p-ERK (Thr202/Tyr204) in A549 cells; assay: Western blot of p-ERK, A549; assay type: cell-based, human; settings: for p-ERK expression (fold), Mean: 24 h, vs DMSO
Method: as §2

[10] = test system: p-Akt (Ser473) in A549 cells; assay: Western blot of p-Akt, A549; assay type: cell-based, human; settings: for p-Akt expression (fold), Mean: 24 h, vs DMSO
Method: as §2

[11] = test system: p-ERK (Thr202/Tyr204) in H1975 cells; assay: Western blot of p-ERK, H1975; assay type: cell-based, human; settings: for p-ERK expression (fold), Mean: 24 h, vs DMSO
Method: as §2

[12] = test system: p-Akt (Ser473) in H1975 cells; assay: Western blot of p-Akt, H1975; assay type: cell-based, human; settings: for p-Akt expression (fold), Mean: 24 h, vs DMSO
Method: as §2

[13] = molecular target: T3, p-EGFR (Tyr1068) in A549 cells (Homo sapiens, UniProt P00533); assay: Western blot of p-EGFR, EGF-stimulated A549; assay type: cell-based; settings: for p-EGFR expression (fold), Mean: A549, EGF-stimulated (+), vs DMSO (+)
T3 construct: endogenous in cells; host or cells: A549
Method: as §2

[14] = molecular target: T4, p-EGFR (Tyr1068) in H1975 cells (Homo sapiens, UniProt P00533, L858R/T790M); assay: Western blot of p-EGFR, H1975; assay type: cell-based; settings: H1975, 6.25–50 μM, dose-dependent
T4 construct: endogenous in cells; host or cells: H1975
Method: as §2, with “After washing, membranes were incubated at room temperature for 1 h with secondary antibodies—goat anti-Rabbit IgG or goat anti-Mouse IgG (Invitrogen, Waltham, MA, USA)—diluted 1:2000.” left out, “The auto exposure mode was selected to automatically adjust the exposure time to prevent image saturation.” left out

[15] = molecular target: T5, EGFR protein in A549 cells (Homo sapiens, UniProt P00533); assay: Cellular thermal shift assay (CETSA); assay type: binding; settings: A549 cell lysates, 100 μM, 1 hour, heated at 40–60 °C, n = 2
T5 construct: endogenous in cells; host or cells: A549
Method: Figure S9. The cellular thermal shift assay. The stability of EGFR protein in A549 cells was assessed by treating cell lysates with either 0.2% DMSO or 100 μM asiatic acid for 1 hour. Following treatment, samples were heated at 40–60 °C for 3 minutes, rapidly cooled on ice for 10 minutes, and then centrifuged at 12,000 rpm at 4 °C for 30 minutes.
The supernatants were analyzed by Western blot, and relative band intensities were plotted against the corresponding heating temperatures. Data are expressed as mean ± […]
(1 picture or pasted object on this page, not shown here)

[16] = A549, 100 μM, listed as AS-PN005

## C[C@H]1[C@H](C)CC[C@]2(C(=O)O)CC[C@]3(C)C(=CC[C@@H]4[C@@]5(C)C[C@@H](O)[C@H](O)[C@@](C)(CO)[C@@H]5CC[C@]43C)[C@H]12 [Asiatic acid, asiatic acid]
wild-type EGFR
  IC50: 0.035 ± 0.002 nM
L858R/T790M EGFR
  IC50: 0.348 ± 0.055 nM
[1]; Figure S8
  IC50: 0.471 nM
[1]; ratio of kinase IC50 values
  selectivity for EGFR over FGFR: approximately 13.5 fold
A549 cells [2]
  IC50: 64.5 ± 2.49 µM
H1975 cells [3]; H1975, MTT, 72 h, mean ± SEM (n = 3), read-out: IC50 cell viability
  IC50: 36.6 ± 0.86 µM
H1975 cells [3]; H1975, concentrations of ≥100 μM, read-out: cell viability
  viability at 100 µM: < 40%
[4]; Homo sapiens, BEAS-2B, 72 h, mean ± SEM (n = 3)
  IC50: 184 ± 5.38 µM
[4]; concentrations ≤100 μM (12.5–100 μM)
  cytotoxicity in BEAS-2B cells: no notable cytotoxicity
A549 cells [5]; A549, 100 μM
  increase of apoptotic cell population relative to DMSO-treated group: approximately threefold
H1975 cells [6]; H1975, 50 μM
  increase of apoptotic cell population relative to DMSO-treated group: about twofold
[7]; A549, 25 μM
  cleaved PARP expression (fold), Mean: 3.12 fold
[7]; A549, 50 μM
  cleaved PARP expression (fold), Mean: 4.42 fold
[7]; A549, 100 μM
  cleaved PARP expression (fold), Mean: 6.86 fold
[7]; A549, 25–100 μM, p < 0.0001
  cleaved PARP (Asp214) levels, in words: significant, concentration-dependent increase
[8]; H1975, 12.5 μM
  cleaved PARP expression (fold), Mean: 7.26 fold
[8]; H1975, 25 μM
  cleaved PARP expression (fold), Mean: 9.99 fold
[8]; H1975, 50 μM
  cleaved PARP expression (fold), Mean: 14.15 fold
[8]; H1975, 12.5–50 μM, p < 0.0001
  cleaved PARP expression, in words: significantly elevated
[9]; A549, 12.5 μM
  p-ERK expression (fold), Mean: 0.427 fold
[9]; A549, 25 μM
  p-ERK expression (fold), Mean: 0.402 fold
[9]; A549, 50 μM
  p-ERK expression (fold), Mean: 0.294 fold
[9]; A549, 100 μM
  p-ERK expression (fold), Mean: reducing these proteins more than erlotinib
[9]; [16]
  p-ERK expression (fold), Mean: 0.103 fold
[9]; A549, 12.5–100 μM
  p-ERK levels compared to the vehicle control, in words: significantly decreased
[10]; A549, 12.5 μM
  p-Akt expression (fold), Mean: 0.454 fold
[10]; A549, 25 μM
  p-Akt expression (fold), Mean: 0.393 fold
[10]; A549, 50 μM
  p-Akt expression (fold), Mean: 0.336 fold
[10]; A549, 100 μM
  p-Akt expression (fold), Mean: reducing these proteins more than erlotinib
[10]; [16]
  p-Akt expression (fold), Mean: 0.147 fold
[10]; A549, 12.5–100 μM
  p-Akt levels compared to the vehicle control, in words: significantly decreased
[11]; H1975, 6.25 μM
  p-ERK expression (fold), Mean: 0.755 fold
[11]; H1975, 12.5 μM
  p-ERK expression (fold), Mean: 0.636 fold
[11]; H1975, 25 μM
  p-ERK expression (fold), Mean: 0.566 fold
[11]; H1975, 50 μM
  p-ERK expression (fold), Mean: 0.458 fold
[11]; H1975, 6.25–50 μM, p < 0.0001
  p-ERK level, in words: significant, dose-dependent decrease
[12]; H1975, 6.25 μM
  p-Akt expression (fold), Mean: 0.747 fold
[12]; H1975, 12.5 μM
  p-Akt expression (fold), Mean: 0.696 fold
[12]; H1975, 25 μM
  p-Akt expression (fold), Mean: 0.605 fold
[12]; H1975, 50 μM
  p-Akt expression (fold), Mean: 0.423 fold
[12]; H1975, 6.25–50 μM, p < 0.0001
  p-Akt level, in words: significant, dose-dependent decrease
[13]; A549, 12.5–100 μM, concentration-dependent
  EGF-induced EGFR phosphorylation, in words: significantly inhibited
[13]; 12.5 μM
  p-EGFR expression (fold), Mean: 0.75 fold
[13]; 25 μM
  p-EGFR expression (fold), Mean: 0.40 fold
[13]; 50 μM
  p-EGFR expression (fold), Mean: 0.36 fold
[13]; 100 μM
  p-EGFR expression (fold), Mean: 0.21 fold
[14]
  p-EGFR levels, in words: significantly reduced
[15]
  thermal stability of EGFR protein (CETSA): markedly enhanced the stability

## C#Cc1cccc(Nc2ncnc3cc(OCCOC)c(OCCOC)cc23)c1 [Erlotinib, reference compound]
A549 cells [5]; A549, 10 μM
  increase of apoptosis compared to the untreated group: approximately twofold

## C=CC(=O)Nc1cc(Nc2nccc(-c3cn(C)c4ccccc34)n2)c(OC)cc1N(C)CCN(C)C [Osimertinib]
H1975 cells [3]; H1975, 3.125 μM, n = 3
  viability at 3.125 µM: 61.5%
H1975 cells [3]; H1975, 6.25 μM, n = 3
  viability at 6.25 µM: 44.8%
H1975 cells [3]; H1975, 12.5 μM, n = 3
  viability at 12.5 µM: 23.8%
H1975 cells [3]; H1975, 25 μM, n = 3
  viability at 25 µM: 12.1%
H1975 cells [3]; H1975, 50 μM, n = 3
  viability at 50 µM: 7.89%
H1975 cells [3]; H1975, 100 μM, n = 3, read-out: Cell viability (%) Mean
  viability at 100 µM: 0.43%
H1975 cells [3]; Table S1, n = 3, read-out: IC50 (μM) Mean, H1975 cell viability
  IC50: 4.14 µM
H1975 cells [6]; H1975, 5 μM
  increase of apoptosis compared to the untreated group: threefold
